# Measurements as given in patent US20080021105A1, “Medicine Capable of Inhibiting Activation of Transcription Factor Klf5” (THE UNIVERSITY OF TOKYO, priority 2004, published 2008).
# Experiments:
# [1] = tested on: vascular intimal hyperplasia resulted from vascular injury due to the cuff; assay: Mouse cuff-induced injury model, Example 3-2 (EVG staining); type: in vivo, C57BL6/N mice; details: for I/M ratio (mean ± S.D.): EVG staining, 5 weeks after cuff; for ratio of I/M (intima/media) compared with the control group: Example 3-2
# Experimental: Vascular remodeling analysis was performed by using a cuff-induced injury model. Usefulness of this model in relation to vascular remodeling has been reported (Physiol. Genomics, 2, pp.13-30, 2000; Circulation, 104, pp.2716-2721; Circulation, 106, pp.847-853, 2002). For this experiment, 8-week old male C57BL6/N mice (10 animals/group) were used. In an amount of 100 or 200 mg/kg of NIK-333 or 5 or 10 mg/kg of ATRA suspended in soybean oil was orally given once daily every day from 7 days before placement of a cuff (placement of polyethylene tube around blood vessel) to the day before sacrifice. The control group were received soybean oil alone in the same manner. After the 7-day pretreatment, the right femoral artery was covered with PE50 (polyethylene tube 50, outer diameter: 0.965 mm, length: about 1.5 mm) as a cuff. The animals were sacrificed after 5 weeks. Blood was collected, and the cuff was removed under perfusion fixation via puncture of the left ventricle. For pathological evaluation, Elastica van Gieson (EVG) staining was performed. As a result, the ratio of I/M (intima/media) in vascular intimal hyperplasia resulted from vascular injury due to the cuff decreased in the NIK-333 treatment groups compared with the control group.
# 3T3-KLF5 cells = assay: Growth of cells with stable KLF5 (living cell count); type: cell-based; details: for living cell count: 10^−8 to 10^−5 M, 24 hours, serum-free, FIG. 5
# Experimental: (§1) “3T3-KLF5 cells”, cells in which KLF5 was stably expressed (obtained by subcloning cDNA of KLF5 in a 3×FLAG expression vector to prepare a construct of 3×FLAG-KLF5, then transfecting 3T3 cells with the construct, and culturing the transfectants in the presence of G418 for 2 weeks to clone G418 resistant cells, control cells not containing KLF5 which were prepared in the same manner are referred to as 3T3-mock cells), were seeded in DMEM medium containing 10% FBS and penicillin G/streptomycin at a rate of 1×10^5 cells/well (6-well plate) and cultured overnight at 37° C. in a 5% CO2 incubator, and then the medium was changed to DMEM medium containing penicillin G/streptomycin (serum-free). The cells were added with NIK-333 dissolved in DMSO after 2 hours, cultured for 24 hours, and then counted.
# 3T3-mock cells = assay: Growth of control cells not containing KLF5 (living cell count); type: cell-based; details: for living cell count: 10^−8 to 10^−5 M, 24 hours, serum-free, FIG. 5
# Experimental: as §1
# KLF5 = details: reporter assay using cells; Nature Medicine, 8, pp.856-863, 2002; cited from earlier work
# [2] = tested on: neointimal formation in injured blood vessels; details: administered to wild type mice; Nature Medicine, 8, pp.856-863, 2002; cited from earlier work
# [3] = biological target: T1, transcription factor KLF5 (PDGF-A promoter activation under overexpression of RARα) (Homo sapiens, UniProt Q13887); assay: Luciferase assay of KLF5-dependent PDGF-A promoter activation, COS1 cells cotransfected with KLF5 and RARα; type: cell-based
# T1 construct: expressed in transfected cells; host or cells: COS1 cells
# Experimental: COS1 cells were seeded on a 24-well plate at a ratio of 5×10^4 cells/well and cultured at 37° C. in a 5% CO2 incubator for 12 hours. Transfection was performed by using TransFast (registered trade name, Promega) transfection reagent according to the protocol attached to the reagent. Specifically, the cells were added with pCAG/KLF5 or empty vector thereof (pCAG), pCMX/RARα or empty vector thereof (pCMX) and PDGF-A promoter (−900)-Luciferase and cultured at 37° C. in a 5% CO2 incubator for 48 hours. NIK-333 was dissolved in dimethyl sulfoxide (DMSO), and added at 10^−7 to 10^−5 M. Then, a luciferase assay was performed by using Dual Luciferase Reporter Assay System (Promega). In contrast to the transfection of the empty vector for KLF5 and the empty vector for RARα (Lane 1), the transfection of the KLF5 gene alone (Lane 2) and transfection of the RARα gene alone (Lane 3), the transfection of the KLF5 and RARα genes (Lane 4) activated the PDGF-A promoter. This KLF5-dependent PDGF-A promoter activation action under overexpression of RARα was inhibited by NIK-333 (Lanes 5 to 7).
# (§2) COS1 cells were seeded on a 24-well plate at a rate of 5×10^4 cells/well and cultured overnight at 37° C. in a 5% CO2 incubator. Transfection was performed by using TransFast (registered trade name, Promega) transfection reagent according to the protocol attached to the reagent. Specifically, the cells were added with pCAG/KLF5 or empty vector thereof (pCAG), pRSh/RARα, pRSh/RARβ, pRSh/RARγ or empty vector thereof (pRS-RSV) and PDGF-A promoter (−900)-Luciferase and cultured at 37° C. in a 5% CO2 incubator for 48 hours. NIK-333 was dissolved in dimethyl sulfoxide (DMSO); and added at 10^−12 to 10^−5 M. Then, a luciferase assay was performed by using Dual Luciferase Reporter Assay System (Promega). […] This KLF5-dependent PDGF-A promoter activation under overexpression of RARα was inhibited by NIK-333 (Lanes 5 to 12). […] On the other hand, it was noted that the KLF5-dependent PDGF-A promoter activation action under overexpression of RARβ was not affected by NIK-333.
# [4] = biological target: T2, transcription factor KLF5 (PDGF-A promoter activation under overexpression of RARγ) (Homo sapiens, UniProt Q13887); assay: Luciferase assay of KLF5-dependent PDGF-A promoter activation, COS1 cells cotransfected with KLF5 and RARγ; type: cell-based; details: Example 1-2
# T2 construct: expressed in transfected cells; host or cells: COS1 cells
# Experimental: as §2
# [5] = biological target: T3, transcription factor KLF5 (PDGF-A promoter activation under overexpression of RARβ) (Homo sapiens, UniProt Q13887); assay: Luciferase assay of KLF5-dependent PDGF-A promoter activation, COS1 cells cotransfected with KLF5 and RARβ; type: cell-based; details: Example 1-2, FIG. 3
# T3 construct: expressed in transfected cells; host or cells: COS1 cells
# Experimental: as §2
# [6] = tested on: Fibroblast-derived 3T3 cells; assay: Cell growth of fibroblast 3T3 (living cell count); type: cell-based
# Experimental: Fibroblast-derived 3T3 cells were seeded on a 24-well plate at a rate of 1×10^6 cells/well and left for 12 hours. Then, NIK-333 and ATRA were added at 10^−7 to 10^−4 M, and living cells were counted 24, 36 and 48 hours later. NIK-333 and ATRA were dissolved in DMSO.
# [7] = tested on: vascular intimal hyperplasia resulted from vascular injury due to the cuff; assay: Mouse cuff-induced injury model, Example 3-1 (HE staining); type: in vivo, C57BL6/N mice; details: for I/M ratio: HE staining, 5 weeks after cuff
# Experimental: Vascular remodeling analysis was performed by using a cuff-induced injury model. Usefulness of this model in relation to vascular remodeling has been reported (Physiol. Genomics, 2, pp.13-30, 2000; Circulation, 104, pp.2716-2721, 2001; Circulation, 106, pp.847-853, 2002). For this experiment, 8-week old male C57BL6/N mice (10 animals/group) were used. In an amount of 50 mg/kg of NIK-333 dissolved in soybean oil was orally given once a day and every day from 7 days before placement of a cuff (placement of polyethylene tube around blood vessel) to the day before sacrifice. The control group received soybean oil alone in the same manner. After the 7-day pretreatment, the right femoral artery was covered with PE50 (polyethylene tube 50) as a cuff. The animals were sacrificed after 5 weeks. Blood was collected, and the cuff was removed under perfusion fixation via puncture of the left ventricle. For pathological evaluation, hematoxylin/eosin (HE) staining was performed. As a result, the ratio of I/M (intima/media) in vascular intimal hyperplasia resulted from vascular injury due to the cuff decreased in the NIK-333 treatment group compared with the control group.
# [8] = Influence on mouse testes weight and body weight; type: in vivo, C57BL6/N mice
# Experimental: Eight-week old male C57BL6/N mice (10 animals/group) were used. In an amount of 50 mg/kg or 100 mg/kg of NIK-333 dissolved in soybean oil was orally given once daily every day for 5 weeks. The control group received soybean oil alone in the same manner. Body weights were measured after 5 weeks. The animals were sacrificed, then the testes were observed by visual observation, and the testes weights were measured.
# [9] = clinical; N. Eng. J. Med., 334, pp.1561-1567, 1996; cited from earlier work
# hepatoma recurrence = details: clinical; long-term administration over one year; N. Eng. J. Med., 334, pp.1561-1567, 1996; cited from earlier work
# [10] = 50 mg/kg orally once daily for 5 weeks
# [11] = 100 mg/kg orally once daily for 5 weeks
# T1 sequence (P10276 whole entry partner): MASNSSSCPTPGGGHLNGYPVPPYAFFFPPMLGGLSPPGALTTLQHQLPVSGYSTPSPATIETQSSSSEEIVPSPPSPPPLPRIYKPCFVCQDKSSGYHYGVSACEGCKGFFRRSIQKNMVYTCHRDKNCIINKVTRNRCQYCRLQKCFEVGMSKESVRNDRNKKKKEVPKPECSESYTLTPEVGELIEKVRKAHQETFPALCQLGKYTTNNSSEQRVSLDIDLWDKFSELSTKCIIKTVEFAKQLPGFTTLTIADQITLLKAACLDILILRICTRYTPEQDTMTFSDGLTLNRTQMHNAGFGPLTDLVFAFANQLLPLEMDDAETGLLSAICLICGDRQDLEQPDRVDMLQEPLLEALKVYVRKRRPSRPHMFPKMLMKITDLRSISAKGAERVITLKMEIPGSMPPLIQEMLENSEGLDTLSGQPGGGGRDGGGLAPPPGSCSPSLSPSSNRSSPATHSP
# T1 sequence (Q13887 whole entry): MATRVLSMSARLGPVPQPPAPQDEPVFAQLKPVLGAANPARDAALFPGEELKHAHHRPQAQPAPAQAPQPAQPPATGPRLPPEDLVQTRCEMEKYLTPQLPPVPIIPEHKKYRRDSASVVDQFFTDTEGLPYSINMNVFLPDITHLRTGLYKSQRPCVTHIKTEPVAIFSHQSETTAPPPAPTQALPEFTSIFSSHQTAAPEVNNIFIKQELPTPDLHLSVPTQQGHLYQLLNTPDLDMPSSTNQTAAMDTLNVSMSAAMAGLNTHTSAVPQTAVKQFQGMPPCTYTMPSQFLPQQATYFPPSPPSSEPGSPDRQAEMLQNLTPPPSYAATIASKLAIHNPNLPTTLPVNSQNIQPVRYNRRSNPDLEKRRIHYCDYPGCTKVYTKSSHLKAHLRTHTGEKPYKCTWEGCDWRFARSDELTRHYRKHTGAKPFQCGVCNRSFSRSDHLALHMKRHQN
# T2 sequence (P13631 whole entry partner): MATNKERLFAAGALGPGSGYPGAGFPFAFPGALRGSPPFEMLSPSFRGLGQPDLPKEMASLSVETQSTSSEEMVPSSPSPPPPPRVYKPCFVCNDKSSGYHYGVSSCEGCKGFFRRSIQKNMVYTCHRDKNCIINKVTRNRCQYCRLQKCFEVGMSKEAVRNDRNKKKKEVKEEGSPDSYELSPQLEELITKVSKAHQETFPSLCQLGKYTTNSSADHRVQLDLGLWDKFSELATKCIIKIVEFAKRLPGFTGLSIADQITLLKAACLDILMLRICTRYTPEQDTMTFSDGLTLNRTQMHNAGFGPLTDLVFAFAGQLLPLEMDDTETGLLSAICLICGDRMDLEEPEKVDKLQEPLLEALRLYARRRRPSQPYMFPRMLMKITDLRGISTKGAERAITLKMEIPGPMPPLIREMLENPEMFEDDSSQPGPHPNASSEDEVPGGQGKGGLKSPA
# T2 sequence (Q13887 whole entry): as the sequence (Q13887 whole entry) above
# T3 sequence (Q13887 whole entry): as above
structure (smiles),measurement,setting,value
"CC1=C(/C=C/C(C)=C/C=C/C(C)=C/C(=O)O)C(C)(C)CCC1 [ATRA, all-trans-retinoic acid, reference compound]",I/M ratio (mean ± S.D.),[1]; 5 mg/kg orally once daily,0.64 ± 0.3
same,I/M ratio (mean ± S.D.),[1]; 10 mg/kg orally once daily,0.63 ± 0.2
same,ratio of I/M (intima/media) compared with the control group,[1]; ATRA 5 or 10 mg/kg,no difference was observed
same,living cell count,3T3-KLF5 cells; 3T3-KLF5 cells,decrease of the living cell count was observed in a concentration-dependent manner
same,living cell count,3T3-mock cells,decrease of the living cell count was observed in a concentration-dependent manner
CC1(C)CCC(C)(C)c2cc(NC(=O)c3ccc(C(=O)O)cc3)ccc21 [Am80],transcription of PDGF-A induced by KLF5,KLF5,inhibited
same,neointimal formation in injured blood vessels,[2],inhibited
"CC(C)=CCC/C(C)=C/CC/C(C)=C/C=C/C(C)=C/C(=O)O [NIK-333, (2E,4E,6E, 10E)-3,7,11,15-Tetramethyl-2,4,6,10,14-hexadecapentanoic acid]",KLF5-dependent PDGF-A promoter activation action under overexpression of RARα,"[3]; Example 1-1, COS1 cells, 10^−7 to 10^−5 M, FIG. 1",inhibited
same,concentration from which the action showed concentration dependency,"[3]; Example 1-1, COS1 cells, RARα",≥ 10^−7 M
same,KLF5-dependent PDGF-A promoter activation under overexpression of RARα,"[3]; Example 1-2, COS1 cells, 10^−12 to 10^−5 M, FIG. 2",inhibited
same,concentration from which the inhibitory action was significantly concentration-dependent,"[3]; Example 1-2, COS1 cells, RARα",≥ 10^−10 M
same,inhibitory action compared with ATRA,"[3]; Example 1-2, RARα",more potent than that of all-trans-retinoic acid (ATRA)
same,KLF5-dependent activation of the PDGF-A promoter under overexpression of RARγ,"[4]; COS1 cells, FIG. 3",inhibited
same,inhibitory action compared with ATRA,[4]; RARγ,more potent than that of ATRA
same,KLF5-dependent PDGF-A promoter activation action under overexpression of RARβ,[5],not affected
same,concentration from which cell growth was inhibited in a concentration dependent manner,[6]; 3T3 cells,≥ 10^−7 M
same,cell growth inhibitory action compared with ATRA,"[6]; 3T3 cells, FIG. 4",more potent than that of ATRA
same,cell growth of 3T3 cells (living cell count),"[6]; 10^−7 to 10^−4 M, 24, 36 and 48 hours, FIG. 4",inhibited cell growth in a concentration dependent manner
same,I/M ratio,[7]; 50 mg/kg orally once a day,0.87 ± 0.29
same,I/M ratio,[7]; 100 mg/kg,0.75 ± 0.31
same,ratio of I/M (intima/media) compared with the control group,"[7]; NIK-333 treatment group, Example 3-1",decreased
same,I/M ratio (mean ± S.D.),[1]; 100 mg/kg orally once daily,0.38 ± 0.2
same,I/M ratio (mean ± S.D.),[1]; 200 mg/kg orally once daily,0.09 ± 0.1
same,ratio of I/M (intima/media) compared with the control group,[1]; NIK-333 100 or 200 mg/kg,decreased
same,Body weight,[8]; [10],20.8 ± 0.3 g
same,Weight of both testes,[8]; [10],0.1465 ± 0.0043 g
same,Body weight,[8]; [11],21.2 ± 0.3 g
same,Weight of both testes,[8]; [11],0.1360 ± 0.0026 g
same,body weight compared with the control group,"[8]; 50 or 100 mg/kg, 5 weeks",no difference was observed
same,testes weight compared with the control group,"[8]; 50 or 100 mg/kg, 5 weeks",no difference was observed
same,visual observation of the testes,"[8]; 50 or 100 mg/kg, 5 weeks",no abnormal finding was observed
same,action on living cell count compared with ATRA,3T3-KLF5 cells; 3T3-KLF5 cells,more potent than that of ATRA
same,living cell count,3T3-KLF5 cells; 3T3-KLF5 cells,decrease of the living cell count was observed in a concentration-dependent manner
same,survival rate of 3T3-KLF5 cells versus 3T3-mock cells,3T3-KLF5 cells; after the addition of NIK-333,the survival rate of the 3T3-KLF5 cells was higher than that of the 3T3-mock cells
same,action on living cell count compared with ATRA,3T3-mock cells,more potent than that of ATRA
same,living cell count,3T3-mock cells,decrease of the living cell count was observed in a concentration-dependent manner
same,liver function failure and adverse side effects observed with other retinoids,[9],does not substantially induce
same,recurrence of hepatoma after radical treatment,hepatoma recurrence,significantly inhibited
